For orientation: IC50 means the concentration at which inhibition is half-maximal. A high value points to lower potency.

Series [1] relates to Caski cells. The series can be described thus: cell viability (MTS, Celltiter 96 AQueous) Caski. The series is classed as cell-based, human. The conditions noted are these: 48 to 96 hours, relative to DMSO.
Series [2] deals with interaction between anti-FLAG antibody and the FLAG epitope in the E6AP-BAP fusion. Nature of the series: FLAG/BAP specificity filter binding assay. How it is done:
The collection of 72 available structural-lead compounds was tested in the filter-plate based in vitro E6-E6AP binding assay. Compounds were tested twice at concentrations of 10, 50, and 100 µM. […] Compounds that disrupted the Flag-BAP interaction with the same potency as the HPV-16 E6 and E6AP interaction were classified as non-specific and eliminated from further analysis.
Figure 3 Activity of flavonoids in the in vitro binding assay. Compounds were tested in vitro for the ability to disrupt the E6-E6AP interaction. […] Percent inhibition was determined by the amount of BAP activity remaining in the well after washing and normalized to DMSO. Data was plotted by linear regression for single site binding using Prism (n=3, S.E.M.).
(§1) This interaction between E6 and hDlg occurs at the C-terminus of E6 and is independent of the interaction between E6 and the charged leucine helix in E6AP [21, 22].

The test system of series [3] is Caski cells. Nature of the series: p53/p21 immunoblot analysis in Caski cells. The settings on record: 40 hours. The series is classed as cell-based, human. How it is done: Caski cells, which are derived from an HPV-16 infected cervical carcinoma and express HPV-16 E6 and E7, were used to determine whether these compounds interfere with HPV-16 E6 function. Inhibition of E6 should block its ability to promote the degradation of p53 thereby increasing the levels of p53. […] These compounds were also assayed in telomerase immortalized human retinal epithelial cells (RPE-1). […] If the elevation in p53 is dependent on the inhibition of E6 by these compounds, p53 should not increase in the RPE-1 cells.
20,000 cells per cm^2 were plated in 6-well dishes. Cells were incubated for 24 hours at which time fresh media and compound were added. After 40 hours, cells were harvested, washed with cold PBS, and lysed in RIPA buffer with protease inhibitor. Each sample was separated on a 12% SDS-page gel, transferred to Immobilon-P membrane (Millipore) and blotted for the p53 (DO-1, Santa Cruz), p21 (c-19, Santa Cruz), and actin (A2066, Sigma). Protein quantification was performed with the Fujifilm LAS-4000 Multifunctional Imaging System. The signal intensity was measured for each band on an immunoblot, normalized to the loading control, and the fold increase was determined in relation to the appropriate DMSO treated control. RNA was isolated from these cells using Trizol Reagent (Invitrogen 15596-026). cDNA was generated using the Improm-II Reverse Transcription System (Promega A3801). qPCR was performed as described in the protocol for SsoFast EvaGreen supermix (BioRad 172-5023) using an BioRad CFX96 real-time PCR machine. Melting curves for each reaction were obtained. Each sample was assayed in triplicate and every plate contained a 5-point cDNA dilution course to calculate amplification efficiency for each primer pair. The Pfaffl method was used to determine the change in transcript levels relative to the DMSO and normalized to GAPDH.
In general terms: A western blot detects proteins with antibodies after separation by electrophoresis.

Series [4] addresses T1, interaction between HPV-16 E6 and E6AP (Human papillomavirus type 16, UniProt P03126).
T1 construct: made in house; host or cells: E. coli BL21
The series can be described thus: biochemical. The series is classed as binding. The conditions noted are these: for Emax: read-out: Maximal Inhibition. How it is done:
To characterize potential E6 inhibitors, a robust in vitro assay was developed to measure the interaction between HPV-16 E6 and E6AP. […] The core 70 amino acids of the E6 binding region of E6AP (residues 371-440) was fused to bacterial alkaline phosphatase (BAP) in the MY101 vector [40]. […] Binding efficiency was determined from the intensity of BAP activated chemiluminescence remaining in each well.
Kinetic analysis was performed to characterize the protein-protein interaction inherent in this assay.
The collection of 72 available structural-lead compounds was tested in the filter-plate based in vitro E6-E6AP binding assay. […] Compounds that disrupted the Flag-BAP interaction with the same potency as the HPV-16 E6 and E6AP interaction were classified as non-specific and eliminated from further analysis. […]
(§2) Pre-Block - 96-well filter plates were prepared (0.2 µm BioTrace NT, Pall). 100µL of blocking buffer (100 mM Tris pH 8.0, 100 mM NaCl, 0.1% milk) was added per well. Plates were blocked for 1 hr at RT on an orbital shaker. Buffer was removed by vacuum filtration using a vacuum manifold. GST-E6 Bead addition – GST-E6 beads were prepared at 5µg/mL in GST-E6 bead buffer (100 mM Tris pH 8.0, 100 mM NaCl, 0.1% milk, 2.5 mM DTT). 100µL of GST-E6 bead mix was added per well and incubated for 1 hr at 4°C. Buffer was removed by vacuum filtration. […] 48 µL of each reagent was added per well. For drug assay, 2µL of compound was added to each well and mixed thoroughly. […] Plates were incubated for 1-3 hours at RT on an orbital shaker. Buffer was removed by vacuum filtration. Plates were washed on the vacuum manifold, first with 200 µL buffer (100 mM Tris pH 8.0, 100 mM NaCl, 1 mM DTT), and twice more with 100µL lysis buffer without DTT. Plates were cleared and dried with on the vacuum manifold. Assay – Immunostar assay reagent was prepared and equilibrated to RT prior to addition. 60 µL of Immunostar-AP assay reagent was added, the BAP activity was allowed to develop for 10 minutes and the plates were read on a Wallace Luminometer. BAP activity was measured as relative light units (RLU) on a luminometer using the Immunostar-AP substrate (BioRad).

In the next series the test system is primary HFKs. Nature of the series: cell viability (MTS, Celltiter 96 AQueous) primary HFKs. Type of series: cell-based, human. The settings on record: 48 hours, relative to DMSO.
Series [5] has as its target T2, interaction between GST-E6 and three PDZ domains of hDlg fused to BAP (hDlg-BAP) (Human papillomavirus type 16, UniProt P03126).
T2 construct: made in house; host or cells: E. coli BL21
The series can be described thus: E6/hDlg-BAP specificity filter binding assay. More on the design: species or system HPV-16. How it is done: as §1
as §2, with “Plates were cleared and dried with on the vacuum manifold. Assay – Immunostar assay reagent was prepared and equilibrated to RT prior to addition.” left out

The subject of a further series is RPE-1 cells. The series can be described thus: cell viability (MTS, Celltiter 96 AQueous) RPE-1. The series is classed as cell-based, human. The conditions noted are these: RPE-1 (HPV negative), 48 to 96 hours, relative to DMSO.
For a further series, the system named is HaCat cells. Nature of the series: cell viability (MTS, Celltiter 96 AQueous) HaCat. The series is classed as cell-based, human. The settings on record: HaCat (HPV negative), 48 to 96 hours, relative to DMSO. How it is done:
HPV-18 positive HeLa cells and two additional control cell lines, C33a, a cell line derived from an HPV-negative human cervical cancer isolate, and HaCat, a spontaneously immortalized human keratinocyte cell line, were used to assess compounds for their impact on cell growth and viability. All cells were incubated for 48 to 96 hours with increasing doses of compound. Cell viability was measured by MTS based assay and % viability quantified relative to cells treated with DMSO.
For cell viability, 12,000 cells per cm^2 were plated in 96-well dishes 24 hours prior to drug addition. Fresh media and compound were added. Plates were read after 72-96 hours. Relative cell viability was assayed as directed in the Celltiter 96 AQueous one solution assay (Promega). For caspase activity, plates were assayed after 4, 8, 12, 24, or 48 hours as described for the Caspase-Glo 3/7 assay (Promega).

[6] abbreviates: full 7-point dose response, 0.5 µM to 333 µM, quadruplicate.

Like-named read-outs stand apart in the source and are kept apart here.

T1 sequence (P03126 whole entry): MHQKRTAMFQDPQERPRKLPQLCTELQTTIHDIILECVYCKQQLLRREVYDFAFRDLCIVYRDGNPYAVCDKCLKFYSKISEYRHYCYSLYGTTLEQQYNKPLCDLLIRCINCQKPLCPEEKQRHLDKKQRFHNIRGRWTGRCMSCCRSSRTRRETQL
T2 sequence (P03126 whole entry, the tested form may be a part): as the sequence (P03126 whole entry) above

Regarding `COc1cccc(-c2cc(=O)c3cc(-c4nnn[nH]4)ccc3o2)c1` [CAF-24], the “cell growth and viability” value in the series with Caski cells [1] is recorded as “selectively inhibited growth”; with primary HFKs it was “to a lesser extent, inhibit growth of the primary HFKs”; with RPE-1 cells, “little effect on the viability”; with HaCat cells, “little effect on the viability”. In addition, the “non-specific inhibition / specificity in FLAG-E6AP control assay” value in series [2] was “increased specificity against the FLAG and hDlg control binding reactions”. Further, in the series on Caski cells [3], the “p21^Cip1/Waf1 protein levels” value is “concomitant induction”. For the same compound, in the series with Caski cells [3], the p53 protein levels entry was “increased p53 levels”. Besides, the IC50 is 2.8 µM in series [4] and “low micromolar IC50 values” in series [4] (setting [6]). In addition, in series [4], the Emax worked out at 95%. Moreover, the “specificity against hDlg control binding reaction” value in series [5] was “increased specificity against the FLAG and hDlg control binding reactions”.
On to `O=c1cc(-c2ccc(O)c(O)c2)oc2cc(O)cc(O)c12` [luteolin, reference compound], for which, in the series with Caski cells [1], the “cell growth and viability” value is “potent inhibitor of Caski, E6/E7 HFKs, and HeLa growth”. Moreover, in the series on Caski cells [3], the “p21^Cip1/Waf1 protein levels” value is given as “concomitant induction” and the p53 protein levels entry is recorded as “increased p53 levels”. Moreover, in series [4], inhibition was half-maximal at 4.3 µM (IC50) and the Emax is 99%. For the same compound, in series [4] (full 7-point binding assay, maximum), the “inhibition of the interaction between E6 and E6AP” value is listed as “up to 100%”. Further, the IC50 result in series [4] (setting [6]) was “low micromolar IC50 values”.

Source of the values: paper PMC3871595, “Structure Based Identification and Characterization of Flavonoids That Disrupt Human Papillomavirus-16 E6 Function” (PLoS ONE, 2013).
